Our source for the IC50 values is US9499548B2, “Inhibitors of bruton's tyrosine kinase” (Hoffmann-La Roche Inc., priority 2012, dated 2016).

The assay concerns B cell receptor-mediated activation of B cells in human blood (CD69 expression). The assay can be described thus: Inhibition of B cell activation in whole blood measured by CD69 expression. The following applies: anti-IgM stimulation, 20 hours, concentration decreasing by 50% the CD69-positive cells that are also CD20-positive. In kind it is cell-based. The method, then:
Inhibition of B Cell Activation in Whole Blood Measured by CD69 Expression
A procedure to test the ability of Btk inhibitors to suppress B cell receptor-mediated activation of B cells in human blood is as follows:
Human whole blood (HWB) is obtained from healthy volunteers, with the following restrictions: 24 hr drug-free, non-smokers. Blood is collected by venipuncture into Vacutainer tubes anticoagulated with sodium heparin. Test compounds are diluted to ten times the desired starting drug concentration in PBS (20×), followed by three-fold serial dilutions in 10% DMSO in PBS to produce a nine point dose-response curve. 5.5 μl of each compound dilution is added in duplicate to a 2 ml 96-well V bottom plate (Analytical Sales and Services, #59623-23); 5.5 μl of 10% DMSO in PBS is added to control and no-stimulus wells. HWB (100 μl) is added to each well, and after mixing the plates are incubated at 37 C, 5% CO2, 100% humidity for 30 minutes. Goat F(ab′)2 anti-human IgM (Southern Biotech, #2022-14) (10 μl of a 500 μg/ml solution, 50 μg/ml final concentration) is added to each well (except the no-stimulus wells) with mixing and the plates are incubated for an additional 20 hours.
At the end of the 20 hour incubation, samples are incubated with florescent-probe-labeled antibodies (15 μl PE Mouse anti-Human CD20, BD Pharmingen, #555623, and/or 20 ul APC Mouse anti-Human CD69, BD Pharmingen #555533) for 30 minutes, at 37 C, 5% CO2, 100% humidity. Included are induced control, unstained and single stains for compensation adjustments and initial voltage settings. Samples are then lysed with 1 ml of 1× Pharmingen Lyse Buffer (BD Pharmingen #555899), and plates are centrifuged at 1800 rpm for 5 minutes. Supernatants are removed via suction and the remaining pellets are lysed again with another 1 ml of 1× Pharmingen Lyse Buffer, and plates are spun down as before. Supernatants are aspirated and remaining pellets are washed in FACs buffer (PBS+1% FBS). After a final spin, the supernatants are removed and pellets are resuspended in 180 μl of FACs buffer. Samples are transferred to a 96 well plate suitable to be run on the HTS 96 well system on the BD LSR II flow cytometer.
Using appropriate excitation and emission wavelengths for the fluorophores used, data are acquired and percent positive cell values are obtained using Cell Quest Software. Results are initially analyzed by FACS analysis software (Flow Jo). […] The IC50 values are calculated using XLfit software version 3, equation 201.
Representative compound data for this assay are listed below in Table II.

As usually defined, the IC50 is the concentration needed to halve the response being measured. A high value points to weaker potency in that assay.

On to `Cn1nc(-c2cccc(-n3ncc4cc(C(C)(C)C)ccc4c3=O)c2CO)cc(Nc2ccc(OC(C)(C)CN3CC(F)(F)C3)cn2)c1=O` [Compound I-14, 6-tert-Butyl-2-[3-(5-{5-[2-(3,3-difluoro-azetidin-1-yl)-1,1-dimethyl-ethoxy]-pyridin-2-ylamino}-1-methyl-6-oxo-1,6-dihydro-pyridazin-3-yl)-2-hydroxymethyl-phenyl]-2H-phthalazin-1-one], for which the IC50 was found to be 573 nM.

Turning to `Cn1nc(-c2cccc(-n3ncc4cc(C(C)(C)C)ccc4c3=O)c2CO)cc(Nc2ccc(OC(C)(C)CN3CCC3)cn2)c1=O` [Compound I-1, 2-(3-{5-[5-(2-Azetidin-1-yl-1,1-dimethyl-ethoxy)-pyridin-2-ylamino]-1-methyl-6-oxo-1,6-dihydro-pyridazin-3-yl}-2-hydroxymethyl-phenyl)-6-tert-butyl-2H-phthalazin-1-one], the half-maximal inhibitory concentration (IC50) was 6 nM.

The compound `Cn1nc(Nc2cc(-c3cccc(-n4ncc5cc(C(C)(C)C)ccc5c4=O)c3CO)nn(C)c2=O)cc1CN1CCC1` [Compound I-3, 2-{3-[5-(5-Azetidin-1-ylmethyl-1-methyl-1H-pyrazol-3-ylamino)-1-methyl-6-oxo-1,6-dihydro-pyridazin-3-yl]-2-hydroxymethyl-phenyl}-6-tert-butyl-2H-phthalazin-1-one] showed an IC50 of 30 nM.

In turn, `CN1CC[C@@H](c2ccc(Nc3cc(-c4cccc(-n5ncc6cc(C(C)(C)C)ccc6c5=O)c4CO)nn(C)c3=O)nc2)C1` [Compound I-5, 6-tert-Butyl-2-(2-hydroxymethyl-3-{1-methyl-5-[5-((S)-1-methyl-pyrrolidin-3-yl)-pyridin-2-ylamino]-6-oxo-1,6-dihydro-pyridazin-3-yl}-phenyl)-2H-phthalazin-1-one] gave an IC50 of 35 nM.

As for `CN1CCn2nc(Nc3cc(-c4cccc(-n5ncc6cc(C(C)(C)C)ccc6c5=O)c4CO)nn(C)c3=O)cc2C1` [Compound I-8, 6-tert-Butyl-2-{2-hydroxymethyl-3-[1-methyl-5-(5-methyl-4,5,6,7-tetrahydro-pyrazolo[1,5-a]pyrazin-2-ylamino)-6-oxo-1,6-dihydro-pyridazin-3-yl]-phenyl}-2H-phthalazin-1-one], half-maximal inhibition (IC50) was put at 42 nM. The IC50 values of the last two compounds are within 1.5-fold of each other.

The compound `Cn1nc(-c2cccc(-n3ncc4cc(C(C)(C)C)ccc4c3=O)c2CO)cc(Nc2ccc(C(=O)N3CCOCC3)cn2)c1=O` [Compound I-10, 6-tert-Butyl-2-(2-hydroxymethyl-3-{1-methyl-5-[5-(morpholine-4-carbonyl)-pyridin-2-ylamino]-6-oxo-1,6-dihydro-pyridazin-3-yl}-phenyl)-2H-phthalazin-1-one] had an IC50 of 47 nM.

The compound `CN1CCC[C@H]1c1ccc(Nc2cc(-c3cccc(-n4ncc5cc(C(C)(C)C)ccc5c4=O)c3CO)nn(C)c2=O)nc1` [Compound I-4, 6-tert-Butyl-2-(2-hydroxymethyl-3-{1-methyl-5-[5-((S)-1-methyl-pyrrolidin-2-yl)-pyridin-2-ylamino]-6-oxo-1,6-dihydro-pyridazin-3-yl}-phenyl)-2H-phthalazin-1-one] gave an IC50 of 32 nM.

For the compound `CCN1CCC(c2ccc(Nc3cc(-c4cccc(-n5ncc6cc(C(C)(C)C)ccc6c5=O)c4CO)nn(C)c3=O)nc2)CC1` [Compound I-9, 6-tert-Butyl-2-{3-[5-(1′-ethyl-1′,2′,3′,4′,5′,6′-hexahydro-[3,4′]bipyridinyl-6-ylamino)-1-methyl-6-oxo-1,6-dihydro-pyridazin-3-yl]-2-hydroxymethyl-phenyl}-2H-phthalazin-1-one], it took 45 nM to reach half-maximal inhibition (IC50).

`Cn1nc(-c2cccc(-n3ncc4cc(C(C)(C)C)ccc4c3=O)c2CO)cc(Nc2ccc(C3CCN(C4COC4)CC3)cn2)c1=O` [Compound I-13, 6-tert-Butyl-2-{2-hydroxymethyl-3-[1-methyl-5-(1′-oxetan-3-yl-1′,2′,3′,4′,5′,6′-hexahydro-[3,4′]bipyridinyl-6-ylamino)-6-oxo-1,6-dihydro-pyridazin-3-yl]-phenyl}-2H-phthalazin-1-one] returned an IC50 of 188 nM.

`CN1CCC(c2ccc(Nc3cc(-c4cccc(-n5ncc6cc(C(C)(C)C)ccc6c5=O)c4CO)nn(C)c3=O)nc2)CC1` [Compound I-2, 6-tert-Butyl-2-{2-hydroxymethyl-3-[1-methyl-5-(1′-methyl-1′,2′,3′,4′,5′,6′-hexahydro-[3,4′]bipyridinyl-6-ylamino)-6-oxo-1,6-dihydro-pyridazin-3-yl]-phenyl}-2H-phthalazin-1-one] came in with an IC50 of 10 nM. Compared with the last compound, the IC50 is about 19-fold lower.

For `CN1CCC(c2ccc(Nc3cc(-c4cccc(N5CCc6cc(C(C)(C)C#N)ccc6C5=O)c4CO)nn(C)c3=O)nc2)CC1` [Compound I-15, 2-(2-{2-Hydroxymethyl-3-[1-methyl-5-(1′-methyl-1′,2′,3′,4′,5′,6′-hexahydro-[3,4′]bipyridinyl-6-ylamino)-6-oxo-1,6-dihydro-pyridazin-3-yl]-phenyl}-1-oxo-1,2,3,4-tetrahydro-isoquinolin-6-yl)-2-methyl-propionitrile], the IC50 turned out to be 198 nM.

In turn, `Cn1nc(-c2cccc(-n3ncc4cc(C(C)(C)C#N)ccc4c3=O)c2CO)cc(Nc2ccc(OC(C)(C)CN3CCC3)cn2)c1=O` [Compound I-11, 2-[2-(3-{5-[5-(2-Azetidin-1-yl-1,1-dimethyl-ethoxy)-pyridin-2-ylamino]-1-methyl-6-oxo-1,6-dihydro-pyridazin-3-yl}-2-hydroxymethyl-phenyl)-1-oxo-1,2-dihydro-phthalazin-6-yl]-2-methyl-propionitrile] gave an IC50 of 135 nM.

In turn, `Cn1nc(-c2cccc(-n3ncc4cc(C(C)(C)C)ccc4c3=O)c2CO)cc(Nc2ccc(OC(C)(C)CNCCCO)cn2)c1=O` [Compound I-12, 6-tert-Butyl-2-[2-hydroxymethyl-3-(5-{5-[2-(3-hydroxy-propylamino)-1,1-dimethyl-ethoxy]-pyridin-2-ylamino}-1-methyl-6-oxo-1,6-dihydro-pyridazin-3-yl)-phenyl]-2H-phthalazin-1-one] came in with an IC50 of 187 nM.

`CN1CC[C@H](c2ccc(Nc3cc(-c4cccc(-n5ncc6cc(C(C)(C)C)ccc6c5=O)c4CO)nn(C)c3=O)nc2)C1` [Compound I-6, 6-tert-Butyl-2-(2-hydroxymethyl-3-{1-methyl-5-[5-((R)-1-methyl-pyrrolidin-3-yl)-pyridin-2-ylamino]-6-oxo-1,6-dihydro-pyridazin-3-yl}-phenyl)-2H-phthalazin-1-one] showed an IC50 of 36 nM.

The compound `CN1CCC(c2ccc(Nc3cc(-c4cccc(-n5ncc6cc(C(C)(C)C#N)ccc6c5=O)c4CO)nn(C)c3=O)nc2)CC1` [Compound I-7, 2-(2-{2-Hydroxymethyl-3-[1-methyl-5-(1′-methyl-1′,2′,3′,4′,5′,6′-hexahydro-[3,4′]bipyridinyl-6-ylamino)-6-oxo-1,6-dihydro-pyridazin-3-yl]-phenyl}-1-oxo-1,2-dihydro-phthalazin-6-yl)-2-methyl-propionitrile] had an IC50 of 38 nM.
